Values belong to the compound of their own block, whether it stands above or below them.
Molecular target: SOS1/KRAS WT (Homo sapiens (Human), UniProt Q07889)
Assay: SOS1/KRAS WT HTRF binding assay (FRET-based protein-protein interaction)
Details: inhibition of His6-SOS1 (aa564-1049, 40 nM) binding to GST-KRAS-WT (aa1-188, 40 nM); at least two independent replicates; read-out: SOS1/KRAS WT HTRF Binding assay pIC50 (converted)
Summary of the method: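 GST-KRAS WT (aa1-188, 40 nM) and His6-SOS1 exchange domain (aa564-1049, 40 nM) were incubated 60 min at room temperature with compound dose response in HEPES pH7.3 buffer with 10 mM EDTA and 100 mM KF. Anti-GST-Eu(K)/anti-6His-XL665 HTRF was read after 4 hr, and IC50 came from a four-parameter fit (≥2 replicates).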

SOS1/KRAS WT, sequence (Q07889 564-1049): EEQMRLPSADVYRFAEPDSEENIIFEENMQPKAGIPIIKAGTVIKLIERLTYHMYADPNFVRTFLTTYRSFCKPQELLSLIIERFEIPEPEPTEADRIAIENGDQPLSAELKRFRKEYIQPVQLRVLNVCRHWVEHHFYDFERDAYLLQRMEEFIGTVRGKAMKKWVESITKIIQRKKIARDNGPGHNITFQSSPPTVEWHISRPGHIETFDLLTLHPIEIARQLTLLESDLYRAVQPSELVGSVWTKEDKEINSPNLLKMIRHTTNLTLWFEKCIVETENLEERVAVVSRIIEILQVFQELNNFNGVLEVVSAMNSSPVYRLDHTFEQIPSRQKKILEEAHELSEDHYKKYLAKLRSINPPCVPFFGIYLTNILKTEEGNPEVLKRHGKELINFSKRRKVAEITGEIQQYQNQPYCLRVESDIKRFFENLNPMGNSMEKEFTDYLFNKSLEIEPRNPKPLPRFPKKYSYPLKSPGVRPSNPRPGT

IC50: 11.5 nM
Compound: CCOC1(C)C(=O)N(C2CC2)c2cc3c(N[C@H](C)c4cccc(C(F)(F)CO)c4F)nnc(C)c3cc21 (stereo partly drawn) [Compound 164, 1-cyclopropyl-3-ethoxy-3,5-dimethyl-8-[[(1R)-1-[3-(1,1-difluoro-2-hydroxy-ethyl)-2-fluoro-phenyl]ethyl]amino]pyrrolo[2,3-g]phthalazin-2-one]

IC50: 10 nM
Compound: CCOC1(C)C(=O)N(C2CC2)c2cc3c(N[C@H](C)c4cccc(C(F)(F)C(C)(C)O)c4)nnc(C)c3cc21 (stereo partly drawn) [Compound 165, 1-cyclopropyl-3-ethoxy-3,5-dimethyl-8-[[(1R)-1-[3-(1,1-difluoro-2-hydroxy-2-methyl-propyl)phenyl]ethyl]amino]pyrrolo [2,3-g]phthalazin-2-one]

IC50: 14.8 nM
Compound: CCOC1(C)C(=O)N(C2CC2)c2cc3c(N[C@H](C)c4cccc(C(F)(F)C(C)(C)O)c4C)nnc(C)c3cc21 (stereo partly drawn) [Compound 166, 1-cyclopropyl-3-ethoxy-3,5-dimethyl-8-[[(1R)-1-[3-(1,1-difluoro-2-hydroxy-2-methyl-propyl)-2-methyl-phenyl]ethyl]amino]pyrrolo[2,3-g]phthalazin-2-one]

IC50: 12.6 nM
Compound: CCOC1(C)C(=O)N(C2CC2)c2cc3c(N[C@H](C)c4cccc(C(F)(F)CO)c4C)nnc(C)c3cc21 (stereo partly drawn) [Compound 167, 1-cyclopropyl-3-ethoxy-3,5-dimethyl-8-[[(1R)-1-[3-(1,1-difluoro-2-hydroxy-ethyl)-2-methyl-phenyl]ethyl]amino]pyrrolo[2,3-g]phthalazin-2-one]

IC50: 8.91 nM
Compound: CCN1C(=O)C(C)(OC)c2cc3c(C)nnc(N[C@H](C)c4cccc(C(F)(F)CO)c4C)c3cc21 (stereo partly drawn) [Compound 168, 1-ethyl-3-methoxy-3,5-dimethyl-8-[[(1R)-1-[3-(1,1-difluoro-2-hydroxy-ethyl)-2-methyl-phenyl]ethyl]amino]pyrrolo[2,3-g]phthalazin-2-one]

IC50: 10.2 nM
Compound: CCN1C(=O)C(C)(OC)c2cc3c(C)nnc(N[C@H](C)c4cccc(C(F)(F)C(C)(C)O)c4C)c3cc21 (stereo partly drawn) [Compound 169, 1-ethyl-3-methoxy-3,5-dimethyl-8-[[(1R)-1-[3-(1,1-difluoro-2-hydroxy-2-methyl-propyl)-2-methyl-phenyl]ethyl]amino]pyrrolo[2,3-g]phthalazin-2-one]

IC50: 9.12 nM
Compound: CCN1C(=O)C(C)(OC)c2cc3c(C)nnc(N[C@H](C)c4cccc(C(F)(F)C(C)(C)O)c4F)c3cc21 (stereo partly drawn) [Compound 170, 1-ethyl-3-methoxy-3,5-dimethyl-8-[[(1R)-1-[3-(1,1-difluoro-2-hydroxy-2-methyl-propyl)-2-fluoro-phenyl]ethyl]amino]pyrrolo[2,3-g]phthalazin-2-one]

IC50: 9.77 nM
Compound: CCN1C(=O)C(C)(OC)c2cc3c(C)nnc(N[C@H](C)c4cccc(C(F)(F)CO)c4)c3cc21 (stereo partly drawn) [Compound 171, 1-ethyl-3-methoxy-3,5-dimethyl-8-[[(1R)-1-[3-(1,1-difluoro-2-hydroxy-ethyl)phenyl]ethyl]amino]pyrrolo [2,3-g]phthalazin-2-one]

IC50: 9.77 nM
Compound: CCN1C(=O)C(C)(OC)c2cc3c(C)nnc(N[C@H](C)c4cccc(C(F)(F)CO)c4F)c3cc21 (stereo partly drawn) [Compound 172, 1-ethyl-3-methoxy-3,5-dimethyl-8-[[(1R)-1-[3-(1,1-difluoro-2-hydroxy-ethyl)-2-fluoro-phenyl]ethyl]amino]pyrrolo[2,3-g]phthalazin-2-one]

IC50: 11.7 nM
Compound: CCN1C(=O)C(C)(OC)c2cc3c(C)nnc(N[C@H](C)c4cccc(C(F)(F)C(C)(C)O)c4)c3cc21 (stereo partly drawn) [Compound 173, 1-ethyl-3-methoxy-3,5-dimethyl-8-[[(1R)-1-[3-(1,1-difluoro-2-hydroxy-2-methyl-propyl)phenyl]ethyl]amino]pyrrolo [2,3-g]phthalazin-2-one]

IC50: 15.8 nM
Compound: COC1(C)C(=O)N(C)c2cc3c(C)nnc(N[C@H](C)c4cccc(C(F)(F)C(C)(C)O)c4C)c3cc21 (stereo partly drawn) [Compound 174, 3-methoxy-1,3,8-trimethyl-5-[[(1R)-1-[3-(1,1-difluoro-2-hydroxy-2-methyl-propyl)-2-methyl-phenyl]ethyl]amino]pyrrolo[3,2-g]phthalazin-2-one]

Continued, compound first:

Compound: Cc1nnc(N[C@H](C)c2cccc(C(F)F)c2F)c2cc3c(cc12)n(C)c(=O)n3[C@H]1CCOC1 [Compound 146, 5-[[(1R)-1-[3-(difluoromethyl)-2-fluoro-phenyl]ethyl]amino]-1,8-dimethyl-3-[(3S)-tetrahydrofuran-3-yl]imidazo[4,5-g]phthalazin-2-one]
IC50: 12.3 nM

Compound: Cc1nnc(N[C@H](C)c2cccc(C(F)F)c2F)c2cc3c(cc12)n(C)c(=O)n3C1COC1 [Compound 147, 5-[[(1R)-1-[3-(difluoromethyl)-2-fluoro-phenyl]ethyl]amino]-1,8-dimethyl-3-(oxetan-3-yl)imidazo[4,5-g]phthalazin-2-one]
IC50: 12.3 nM

Compound: Cc1nnc(N[C@H](C)c2cccc(C(F)(F)F)c2)c2cc3c(cc12)n(C)c(=O)n3CC#N [Compound 148, 2-[1,8-dimethyl-2-oxo-5-[[(1R)-1-[3-(trifluoromethyl)phenyl]ethyl]amino]imidazo[4,5-g]phthalazin-3-yl]acetonitrile]
IC50: 21.4 nM

Compound: Cc1nnc(N[C@H](C)c2cccc(C(F)(F)F)c2)c2cc3c(cc12)n(C)c(=O)n3C(C)C#N (stereo partly drawn) [Compound 149, 2-[1,8-dimethyl-2-oxo-5-[[(1R)-1-[3-(trifluoromethyl)phenyl]ethyl]amino]imidazo[4,5-g]phthalazin-3-yl]propanenitrile]
IC50: 10.2 nM

Compound: Cc1c(-c2ccnn2C)cccc1[C@@H](C)Nc1nnc(C)c2cc3c(cc12)n(C)c(=O)n3C [Compound 150, 1,3,8-trimethyl-5-[[(1R)-1-[2-methyl-3-(2-methylpyrazol-3-yl)phenyl]ethyl]amino]imidazo[4,5-g]phthalazin-2-one]
IC50: 8.91 nM

Compound: Cc1c(-c2ccn(C)n2)cccc1[C@@H](C)Nc1nnc(C)c2cc3c(cc12)n(C)c(=O)n3C [Compound 151, 1,3,8-trimethyl-5-[[(1R)-1-[2-methyl-3-(1-methylpyrazol-3-yl)phenyl]ethyl]amino]imidazo[4,5-g]phthalazin-2-one]
IC50: 11 nM

Compound: Cc1c(-c2cc(C(F)(F)F)nn2C)cccc1[C@@H](C)Nc1nnc(C)c2cc3c(cc12)n(C)c(=O)n3C [Compound 152, 1,3,8-trimethyl-5-[[(1R)-1-[2-methyl-3-[2-methyl-5-(trifluoromethyl)pyrazol-3-yl]phenyl]ethyl]amino]imidazo[4,5-g]phthalazin-2-one]
IC50: 85.1 nM

Compound: Cc1c(-c2cncnc2)cccc1[C@@H](C)Nc1nnc(C)c2cc3c(cc12)n(C)c(=O)n3C [Compound 153, 1,3,8-trimethyl-5-[[(1R)-1-(2-methyl-3-pyrimidin-5-yl-phenyl)ethyl]amino]imidazo[4,5-g]phthalazin-2-one]
IC50: 107 nM

Compound: Cc1c(C2CC2)cccc1[C@@H](C)Nc1nnc(C)c2cc3c(cc12)n(C)c(=O)n3C [Compound 154, 1,3,8-trimethyl-5-[[(1R)-1-(3-cyclopropyl-2-methyl-phenyl)ethyl]amino]imidazo[4,5-g]phthalazin-2-one]
IC50: 15.8 nM

Compound: Cc1c(-c2ccn[nH]2)cccc1[C@@H](C)Nc1nnc(C)c2cc3c(cc12)n(C)c(=O)n3C [Compound 155, 1,3,8-trimethyl-5-[[(1R)-1-[2-methyl-3-(1H-pyrazol-5-yl)phenyl]ethyl]amino]imidazo[4,5-g]phthalazin-2-one]
IC50: 30.9 nM

Compound: Cc1cc(-c2cccc([C@@H](C)Nc3nnc(C)c4cc5c(cc34)n(C)c(=O)n5C)c2C)n(C)n1 [Compound 156, 1,3,8-trimethyl-5-[[(1R)-1-[3-(2,5-dimethylpyrazol-3-yl)-2-methyl-phenyl]ethyl]amino]imidazo[4,5-g]phthalazin-2-one]
IC50: 89.1 nM

Compound: Cc1c(C2=CCOCC2)cccc1[C@@H](C)Nc1nnc(C)c2cc3c(cc12)n(C)c(=O)n3C [Compound 157, 5-[[(1R)-1-[3-(3,6-dihydro-2H-pyran-4-yl)-2-methyl-phenyl]ethyl]amino]-1,3,8-trimethyl-imidazo[4,5-g]phthalazin-2-one]
IC50: 204 nM

Compound: Cc1c(C2=CCNC2)cccc1[C@@H](C)Nc1nnc(C)c2cc3c(cc12)n(C)c(=O)n3C [Compound 158, 1,3,8-trimethyl-5-[[(1R)-1-[3-(2,5-dihydro-1H-pyrrol-3-yl)-2-methyl-phenyl]ethyl]amino]imidazo[4,5-g]phthalazin-2-one]
IC50: 120 nM

Compound: Cc1c(-c2cncs2)cccc1[C@@H](C)Nc1nnc(C)c2cc3c(cc12)n(C)c(=O)n3C [Compound 159, 1,3,8-trimethyl-5-[[(1R)-1-(2-methyl-3-thiazol-5-yl-phenyl)ethyl]amino]imidazo[4,5-g]phthalazin-2-one]
IC50: 17.8 nM

Compound: Cc1c(C2CCOCC2)cccc1[C@@H](C)Nc1nnc(C)c2cc3c(cc12)n(C)c(=O)n3C [Compound 160, 1,3,8-trimethyl-5-[[(1R)-1-(2-methyl-3-tetrahydropyran-4-yl-phenyl)ethyl]amino]imidazo[4,5-g]phthalazin-2-one]
IC50: 269 nM

Compound: Cc1c(C2CCNC2)cccc1[C@@H](C)Nc1nnc(C)c2cc3c(cc12)n(C)c(=O)n3C (stereo partly drawn) [Compound 161, 1,3,8-trimethyl-5-[[(1R)-1-(2-methyl-3-pyrrolidin-3-yl-phenyl)ethyl]amino]imidazo[4,5-g]phthalazin-2-one]
IC50: 589 nM

Compound: CCOC1(C)C(=O)N(C2CC2)c2cc3c(N[C@H](C)c4cccc(C(F)(F)CO)c4)nnc(C)c3cc21 (stereo partly drawn) [Compound 162, 1-cyclopropyl-8-[[(1R)-1-[3-(1,1-difluoro-2-hydroxy-ethyl)phenyl]ethyl]amino]-3-ethoxy-3,5-dimethyl-pyrrolo[3,2-g]phthalazin-2-one]
IC50: 9.12 nM

Compound: CCOC1(C)C(=O)N(C2CC2)c2cc3c(N[C@H](C)c4cccc(C(F)(F)C(C)(C)O)c4F)nnc(C)c3cc21 (stereo partly drawn) [Compound 163, 1-cyclopropyl-3-ethoxy-3,5-dimethyl-8-[[(1R)-1-[3-(1,1-difluoro-2-hydroxy-2-methyl-propyl)-2-fluoro-phenyl]ethyl]amino]pyrrolo[2,3-g]phthalazin-2-one]
IC50: 10.7 nM

Source: patent publication US20250197407A1 (Jazz Pharmaceuticals Ireland Limited, priority 2022, published 2025)
